We go through 7 molecules from patent US20240376097A1, “BCL-2 Inhibitor” (BeiGene Ltd., priority 2020, published 2024).

Like-named read-outs stand apart in the source and are kept apart here.

Experiment [1] deals with RS4;11 (BCL-2 dependent acute lymphoblastic leukemia cell line). Kind of experiment: RS4;11 Cell Proliferation Assay. The format is cell-based. The following applies: Homo sapiens, RS4-11, RS4;11 cells, read-out: Cellular proliferation assay (IC50, nM) RS4. The essentials: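 RS4;11 cells, 50,000 per well in RPMI-1640 with 10% FBS, treated 48 h at 37 °C with a 10-point dilution series topping at 1 μM. Viability read by CellTiter-Glo ATP luminescence; mean IC50 reported.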

The target of experiment [2] is recombinant human Bcl-2 D103Y protein (Homo sapiens (Human), UniProt P10415, D103Y). Put plainly: Bcl-2-D103Y Biochemical Assay (TR-FRET). The format is binding. The following applies: for IC50: TR-FRET, FITC labeled Bak peptide; for Ratio of Bcl-2 D103Y/Bcl-2 WT: ratio of IC50. The method, boiled down: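 Recombinant human Bcl-2 D103Y binding to its ligand measured by TR-FRET (ex 337 nm, em 490/520 nm) with increasing compound concentrations. Percent inhibition from the 490/520 nm ratio; IC50 from four-parameter logistic fit.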
A general note: TR-FRET usually uses a lanthanide donor and a delayed reading to cut background.

Experiment [3] relates to BCL-2 G101V knock-in cell line H96 (derive from RS4;11). Put plainly: Bcl 2-G101V Knock-In RS4;11 Cell Proliferation Assay. The format is cell-based. The following applies: Homo sapiens, RS4;11 Bcl-2 G101V knock-in clone H96, 48 hrs, CellTiter-GLO, read-out: Cellular proliferation assay (IC50, nM) RS4. The essentials: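 H96, a CRISPR-generated RS4;11 clone carrying BCL2-G101V knock-in (WES/RNA-seq validated), seeded 50,000 per well and exposed 48 h at 37 °C to 10-point dilutions topping at 1 or 10 μM. Viability by CellTiter-Glo luminescence; mean IC50.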

In experiment [4] the target is Recombinant human Bcl-2 protein (Homo sapiens (Human), UniProt P10415). Kind of experiment: Bcl-2 TR-FRET Assay. The experiment is classed as binding. The essentials:
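0.05 nM recombinant Bcl-2 preincubated 0.5 h at room temperature with 10-point compound dilutions (top final 1, 0.1, 0.02 or 0.01 uM) in pH 7.5 phosphate buffer. FITC-Bak peptide (0.5 nM) and anti-6His Tb cryptate then added for 1 h. TR-FRET read; IC50 from four-parameter logistic fit.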

The target in experiment [5] is recombinant human Bcl-2-G101V protein (Homo sapiens (Human), UniProt P10415, G101V). Kind of experiment: Bcl-2-G101V TR-FRET Assay. The following applies: Bcl-2 G101V mutant, TR-FRET; read-out: Biochemical assay (IC50, nM) Bcl-2 G101V. The experiment is classed as binding. The essentials:
(§1)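 IC50 values derive from four-parameter logistic fitting of percent inhibition data. That inhibition of ligand binding to Bcl-2-G101V is computed from the 490 nm/520 nm TR-FRET ratio under 337 nm excitation, over a rising compound concentration series.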

For experiment [6], the system named is recombinant human Bcl-2-G101V protein. Put plainly: Bcl-2-G101V TR-FRET Assay. The experiment is classed as binding. The following applies: for Ratio of Bcl-2 G101V/WT: ratio of biochemical IC50 Bcl-2 G101V / Bcl-2 WT. The essentials:
as §1

Where [7] appears, read: Bcl-2 wild type, TR-FRET, read-out: Biochemical assay (IC50, nM) Bcl-2 WT.
[8] abbreviates: wild type Bcl-2, unit inferred, read-out: Bcl-2 WT.

Take `COc1ccc(CN2CCN(C3CC4(C3)CN(c3ccc(C(=O)NS(=O)(=O)c5ccc(NC[C@H]6CC[C@](C)(O)CC6)c([N+](=O)[O-])c5)c(Oc5cnc6[nH]ccc6c5)c3)C4)C(c3ccccc3C(C)C)C2)cc1` (stereo partly shown) [Example 83, 2-((1H-pyrrolo[2,3-b]pyridin-5-yl)oxy)-N-((4-((((1r,4r)-4-hydroxy-4-methylcyclohexyl)methyl)amino)-3-nitrophenyl)sulfonyl)-4-(6-(2-(2-isopropylphenyl)-4-(4-methoxybenzyl)piperazin-1-yl)-2-azaspiro[3.3]heptan-2-yl) benzamide]: the IC50 in experiment [1] amounted to 0.27 nM; in experiment [2], 160 pM; in experiment [3] it was 0.73 nM; in experiment [4] (setting [7]), 0.079 nM; in experiment [4] (setting [8]) it was 0.079 nM; in experiment [5], 0.25 nM. In experiment [2] (comparison in words), the “ratio of Bcl-2 D103Y/Bcl-2 wt, compared with F91b in WO2019210828” value is on record as “significantly lower”. The “Ratio of Bcl-2 D103Y/Bcl-2 WT” value in experiment [2] amounted to 2. In addition, the “ratio of IC50 of Bcl-2 G101V/Bcl-2 wt, compared with Example F132b in WO2019210828 and ABT-199 (venetoclax)” value in experiment [6] (comparison in words) is given as “much lower”. Moreover, in experiment [6], the “Ratio of Bcl-2 G101V/WT” value is reported as 3.1.
`CC(C)c1ccccc1C1CN(Cc2cnn(C)c2)CCN1C1CC2(CCN(c3ccc(C(=O)NS(=O)(=O)c4ccc(NC[C@H]5CC[C@](C)(O)CC5)c([N+](=O)[O-])c4)c(Oc4cnc5[nH]ccc5c4)c3)CC2)C1` (stereo partly shown) [Example 22, 2-((1H-pyrrolo[2,3-b]pyridin-5-yl)oxy)-N-((4-((((1r,4r)-4-hydroxy-4-methylcyclohexyl)methyl)amino)-3-nitrophenyl)sulfonyl)-4-(2-(2-(2-isopropylphenyl)4-((1-methyl-1H-pyrazol-4-yl)methyl)piperazin-1-yl)-7-azaspiro[3.5]nonan-7-yl) benzamide]: the IC50 was determined as 0.46 nM in experiment [1]; 120 pM in experiment [2]; 2.6 nM in experiment [3]; 0.013 nM in experiment [4] (setting [7]); 0.013 nM in experiment [4] (setting [8]); 0.079 nM in experiment [5]. Also, the “Ratio of Bcl-2 D103Y/Bcl-2 WT” value in experiment [2] is recorded as 9.2. Further, the “Ratio of Bcl-2 G101V/WT” value in experiment [6] is listed as 6.1.
For the molecule `COc1ccc(CN2CCN(C3CC4(CCN(c5ccc(C(=O)NS(=O)(=O)c6ccc(NC[C@H]7CC[C@](C)(O)CC7)c([N+](=O)[O-])c6)c(Oc6cnc7[nH]cc(Cl)c7c6)c5)CC4)C3)[C@H](c3ccccc3C(C)C)C2)cc1OC` [Example 174, 2-((3-chloro-1H-pyrrolo[2,3-b]pyridin-5-yl)oxy)-4-(2-((R)-4-(3,4-dimethoxybenzyl)-2-(2-isopropylphenyl)piperazin-1-yl)-7-azaspiro[3.5]nonan-7-yl)-N-((4-((((1r,4r)-4-hydroxy-4-methylcyclohexyl)methyl)amino)-3-nitrophenyl)sulfonyl)benzamide], the IC50 in experiment [1] was 0.18 nM; in experiment [2], 140 pM; in experiment [3] it was 0.49 nM; in experiment [4] (setting [7]) it was 0.096 nM; in experiment [4] (setting [8]) it was 0.096 nM; in experiment [5], 0.59 nM. The “Ratio of Bcl-2 D103Y/Bcl-2 WT” value in experiment [2] amounted to 1.4. The “Ratio of Bcl-2 G101V/WT” value in experiment [6] was found to be 6.1.
`COc1ccc(CN2CCN(C3CC4(CCN(c5ccc(C(=O)NS(=O)(=O)c6ccc(NC[C@H]7CC[C@](C)(O)CC7)c([N+](=O)[O-])c6)c(Oc6cnc7[nH]ccc7c6)c5)CC4)C3)[C@H](c3ccccc3C(C)C)C2)cn1` [Example 185, 2-((1H-pyrrolo[2,3-b]pyridin-5-yl)oxy)-N-((4-((((1r,4r)-4-hydroxy-4-methylcyclohexyl)methyl)amino)-3-nitrophenyl)sulfonyl)-4-(2-((R)-2-(2-isopropylphenyl)-4-((6-methoxypyridin-3-yl)methyl)piperazin-1-yl)-7-azaspiro[3.5]nonan-7-yl)benzamide]: the IC50 in experiment [1] is 0.14 nM; in experiment [2], 50 pM; in experiment [3], 0.6 nM; in experiment [4] (setting [7]), 0.031 nM; in experiment [4] (setting [8]) it was 0.031 nM; in experiment [5] it was 0.14 nM. Further, the “Ratio of Bcl-2 D103Y/Bcl-2 WT” value in experiment [2] is reported as 1.6. Moreover, the “Ratio of Bcl-2 G101V/WT” value in experiment [6] was determined as 4.5.
With `COc1ccc(CN2CCN(C3CC4(CCN(c5ccc(C(=O)NS(=O)(=O)c6ccc(NC[C@H]7CC[C@](C)(O)CC7)c([N+](=O)[O-])c6)c(Oc6cnc7[nH]ccc7c6)c5)CC4)C3)C(c3ccccc3C3CC3)C2)cc1` (stereo partly shown) [Example 73, 2-((1H-pyrrolo[2,3-b]pyridin-5-yl)oxy)-4-(2-(2-(2-cyclopropylphenyl)-4-(4-methoxybenzyl)piperazin-1-yl)-7-azaspiro[3.5]nonan-7-yl)-N-((4-((((1r,4r)-4-hydroxy-4-methylcyclohexyl)methyl)amino)-3-nitrophenyl)sulfonyl)benzamide], the IC50 in experiment [1] amounted to 0.37 nM; in experiment [2], 310 pM; in experiment [3] it was 2.4 nM; in experiment [4] (setting [7]), 0.06 nM; in experiment [4] (setting [8]), 0.06 nM; in experiment [5], 0.47 nM. Further, in experiment [2], the “Ratio of Bcl-2 D103Y/Bcl-2 WT” value was found to be 5.1. The “Ratio of Bcl-2 G101V/WT” value in experiment [6] worked out at 7.9.
For the molecule `COc1cc(CN2CCN(C3CC4(C3)CN(c3ccc(C(=O)NS(=O)(=O)c5ccc(NC[C@H]6CC[C@](C)(O)CC6)c([N+](=O)[O-])c5)c(Oc5cnc6[nH]ccc6c5)c3)C4)[C@H](c3ccccc3C(C)C)C2)cc2c1OCC2(C)C` [Example 296, 2-((1H-pyrrolo[2,3-b]pyridin-5-yl)oxy)-N-((4-((((1r,4r)-4-hydroxy-4-methylcyclohexyl)methyl)amino)-3-nitrophenyl)sulfonyl)-4-(6-((R)-2-(2-isopropylphenyl)-4-((7-methoxy-3,3-dimethyl-2,3-dihydrobenzofuran-5-yl)methyl)piperazin-1-yl)-2-azaspiro[3.3]heptan-2-yl)benzamide], the IC50 in experiment [1] came out at 0.24 nM; in experiment [2] it was 140 pM; in experiment [3] it was 0.55 nM; in experiment [4] (setting [7]), 0.13 nM; in experiment [4] (setting [8]), 0.13 nM; in experiment [5], 0.28 nM. In addition, the “Ratio of Bcl-2 D103Y/Bcl-2 WT” value in experiment [2] was 1.1. In addition, in experiment [6], the “Ratio of Bcl-2 G101V/WT” value turned out to be 2.1.
For `COc1ccc(CN2CCN(C3CC4(CCN(c5ccc(C(=O)NS(=O)(=O)c6ccc(NCC7(F)CCC(C)(O)CC7)c([N+](=O)[O-])c6)c(Oc6cnc7[nH]ccc7c6)c5)CC4)C3)[C@H](c3ccccc3C(C)C)C2)cc1` (stereo partly drawn) [Example 225, (R)-2-((1H-pyrrolo[2,3-b]pyridin-5-yl)oxy)-N-((4-(((1-fluoro-4-hydroxy-4-methylcyclohexyl)methyl)amino)-3-nitrophenyl)sulfonyl)-4-(2-(2-(2-isopropylphenyl)-4-(4-methoxybenzyl)piperazin-1-yl)-7-azaspiro[3.5]nonan-7-yl) benzamide], the IC50 came out at 0.13 nM in experiment [1]; 100 pM in experiment [2]; 0.65 nM in experiment [3]; 0.092 nM in experiment [4] (setting [7]); 0.092 nM in experiment [4] (setting [8]); 0.37 nM in experiment [5]. For the same molecule, the “Ratio of Bcl-2 D103Y/Bcl-2 WT” value in experiment [2] came out at 1.1. In experiment [6], the “Ratio of Bcl-2 G101V/WT” value was 4.
